The source of these data is US9284333B2, “Fused pyrroledicarboxamides and their use as pharmaceuticals” (SANOFI, priority 2012, dated 2016).

Chain of Human TASK-1 channels (O14649 whole entry): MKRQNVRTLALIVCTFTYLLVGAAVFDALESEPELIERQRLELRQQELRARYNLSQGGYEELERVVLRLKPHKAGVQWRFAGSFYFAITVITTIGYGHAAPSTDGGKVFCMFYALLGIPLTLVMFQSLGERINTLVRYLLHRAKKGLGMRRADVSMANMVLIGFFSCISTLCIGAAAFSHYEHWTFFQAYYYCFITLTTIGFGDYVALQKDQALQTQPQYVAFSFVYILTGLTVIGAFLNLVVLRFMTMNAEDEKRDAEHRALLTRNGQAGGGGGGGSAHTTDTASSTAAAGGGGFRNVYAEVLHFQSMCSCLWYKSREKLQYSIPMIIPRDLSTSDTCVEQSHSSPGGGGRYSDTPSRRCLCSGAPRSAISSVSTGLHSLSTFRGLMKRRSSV

One test addresses Human TASK-1 channels (Homo sapiens (Human), UniProt O14649). Kind of test: Determination of the activity on the TASK-1 channel in Xenopus oocytes (two-microelectrode voltage clamp). The format is cell-based. Conditions: compound concentration 5 μM. On the procedure: Determination of the activity on the TASK-1 channel in Xenopus oocytes
Human TASK-1 channels were expressed in Xenopus oocytes. For this purpose, oocytes were isolated from Xenopus laevis and defoliculated. Subsequently, TASK-1-encoding RNA synthesized in vitro was injected into the oocytes. After two days of TASK-1 protein expression, TASK-1 currents were measured by two-microelectrode voltage clamp. Data were acquired and analyzed using a TEC-10cx amplifier (NPI Electronic, Tamm, Germany) connected to an ITC-16 interface (Instrutech Corp., Long Island, USA) and Pulse software (HEKA Elektronik, Lambrecht, Germany). Oocytes were clamped to −90 mV and TASK-1 mediated currents were measured during 500 ms voltage pulses to 40 mV. Oocytes were continuously superfused with ND96 buffer containing 96 mM sodium chloride, 2 mM potassium chloride, 1.8 mM calcium chloride, 1 mM magnesium chloride, 5 mM 4-(2-hydroxyethyl)-piperazine-1-ethanesulfonic acid (HEPES; pH adjusted to 7.4 with sodium hydroxide). All experiments were performed at room temperature. Test compounds were consecutively added to the bath solution at rising concentrations. Compound effects were calculated as the percentage inhibition of TASK-1 control current before compound addition. IC50 values were obtained by fitting the data to the general dose-response equation.
For `CC[C@@H](NC(=O)c1cc(C(=O)N2CCC[C@@H]2C)n2c1COCC2)c1ccc(C)cc1` [16be, 6-((S)-2-Methyl-pyrrolidine-1-carbonyl)-3,4-dihydro-1H-pyrrolo[2,1-c][1,4]oxazine-8-carboxylic acid ((R)-1-p-tolyl-propyl)-amide], the inhibition at 5 µM came out at 85%.

Staying with this test, now noted: human TASK-1 expressed in Xenopus oocytes, room temperature; read-out: IC50 value for TASK-1 inhibition.
Consider `CC[C@H](NC(=O)c1cc(C(=O)N[C@H](C)c2ccc(F)cc2)n2c1COCC2)c1ncc(C(F)(F)F)cn1` [16ee, 3,4-Dihydro-1H-pyrrolo[2,1-c][1,4]oxazine-6,8-dicarboxylic acid 6-{[(R)-1-(4-fluoro-phenyl)-ethyl]-amide} 8-{[(S)-1-(5-trifluoromethyl-pyrimidin-2-yl)-propyl]-amide}], for which the IC50 stood at 350 nM.

In the case of `CC[C@@H](NC(=O)c1cc(C(=O)N2CC[C@H](F)C2)n2c1COCC2)c1ccccc1` [16fn, 6-((S)-3-Fluoro-pyrrolidine-1-carbonyl)-3,4-dihydro-1H-pyrrolo[2,1-c][1,4]oxazine-8-carboxylic acid ((R)-1-phenyl-propyl)-amide], the IC50 was determined as 160 nM.

Take `C[C@H](NC(=O)c1cc(C(=O)N[C@H](C)c2ccc(F)cc2)n2c1COCC2)c1ncccn1` (racemic) [16dx, 3,4-Dihydro-1H-pyrrolo[2,1-c][1,4]oxazine-6,8-dicarboxylic acid 6-{[(R)-1-(4-fluoro-phenyl)-ethyl]-amide} 8-[((S)-1-pyrimidin-2-yl-ethyl)-amide]]: the IC50 was 1200 nM.

Regarding `CC[C@@H](NC(=O)c1cc(C(=O)NC(C)c2nnn(C)n2)n2c1COCC2)c1ccccc1` (stereo partly drawn) [16rn, 3,4-Dihydro-1H-pyrrolo[2,1-c][1,4]oxazine-6,8-dicarboxylic acid 6-{[1-(2-methyl-2H-tetrazol-5-yl)-ethyl]-amide} 8-[((R)-1-phenyl-propyl)-amide]], the IC50 worked out at 180 nM.

Consider `CC[C@@H](NC(=O)c1cc(C(=O)N2CCC[C@@H]2C)n2c1COCC2)c1cnc(Cl)c(Cl)c1` [16co, 6-((S)-2-Methyl-pyrrolidine-1-carbonyl)-3,4-dihydro-1H-pyrrolo[2,1-c][1,4]oxazine-8-carboxylic acid [(R)-1-(5,6-dichloro-pyridin-3-yl)-propyl]-amide], for which the IC50 amounted to 140 nM.

For `CC[C@@H](NC(=O)c1cc(C(=O)N[C@H](CC)c2cncc(C(F)(F)F)c2)n2c1COCC2)c1ccccc1` [16hn, 3,4-Dihydro-1H-pyrrolo[2,1-c][1,4]oxazine-6,8-dicarboxylic acid 8-[((R)-1-phenyl-propyl)-amide] 6-{[(R)-1-(5-trifluoromethyl-pyridin-3-yl)-propyl]-amide}], the half-inhibitory concentration (IC50) is 690 nM.

As to `CC[C@@H](NC(=O)c1cc(C(=O)N2CCCC2C(C)n2cccn2)n2c1COCC2)c1ccccc1` (stereo partly drawn) [16fw, 6-[2-(1-Pyrazol-1-yl-ethyl)-pyrrolidine-1-carbonyl]-3,4-dihydro-1H-pyrrolo[2,1-c][1,4]oxazine-8-carboxylic acid ((R)-1-phenyl-propyl)-amide], the IC50 stood at 420 nM.

For `CC[C@@H](NC(=O)c1cc(C(=O)N2CCC[C@@H]2C)n2c1COCC2)c1ccncc1Cl` [16bw, 6-((S)-2-Methyl-pyrrolidine-1-carbonyl)-3,4-dihydro-1H-pyrrolo[2,1-c][1,4]oxazine-8-carboxylic acid [(R)-1-(3-chloro-pyridin-4-yl)-propyl]-amide], the IC50 is 1200 nM.

For the compound `CCC(NC(=O)c1cc(C(=O)N[C@H](CC)c2ccccc2)c2n1CCOC2)c1nccs1` (stereo partly drawn) [16ij, 3,4-Dihydro-1H-pyrrolo[2,1-c][1,4]oxazine-6,8-dicarboxylic acid 8-[((R)-1-phenyl-propyl)-amide] 6-[(1-thiazol-2-yl-propyl)-amide]], the IC50 was 170 nM.

As for `CC[C@@H](NC(=O)c1cc(C(=O)NC(C)c2cnccn2)n2c1COCC2)c1ccccc1` (single isomer, unassigned) [16ie], the IC50 was 260 nM.

By inhibition is commonly meant the relative decrease from the control value, in per cent. Lower therefore signals a weak effect. The IC50 is the concentration at which inhibition is half-maximal.
